In brackets after ≈: the same amount, converted by molar mass. Where two headings read alike, the source gives them in different places.
Assays:
[1] = In vitro percutaneous permeation, vertical Franz diffusion cell; assay type: in vitro ADME, Sprague Dawley rats; settings: 20% NIC solution without FK506; data not shown
[2] = in vivo; cited from earlier work
[3] = Solubility of FK506 in NIC solution; assay type: physicochemical
[4] = in vitro; cited from earlier work

Solubility in 30% (w/v) NIC solution relative to that in water ([3]; 30% (w/v) NIC vs water) [fold] | solubility at 3 days ([3]; water (0% (w/v) NIC), 37 °C, water, thermodynamic from solid) [µg/mL] | Structure (SMILES) | Permeation of NIC into skin [1] | Immunosuppressant activity relative to cyclosporine A [2] | Immunosuppressant activity relative to cyclosporine A [4]
– | – | NC(=O)c1cccnc1 [NIC, nicotinamide] | easily permeate into skin | – | –
532 | 0.69 ± 0.24 (≈ 0.858 µM) | C=CC[C@@H]1/C=C(\C)C[C@H](C)C[C@H](OC)[C@H]2O[C@@](O)(C(=O)C(=O)N3CCCC[C@H]3C(=O)O[C@H](/C(C)=C/[C@@H]3CC[C@@H](O)[C@H](OC)C3)[C@H](C)[C@@H](O)CC1=O)[C@H](C)C[C@@H]2OC [FK506, Tacrolimus] | – | 10–20 fold | 30–100 fold

Source: paper PMC4998035 (International Journal of Nanomedicine, 2016)
